Measurements published in ChEMBL document CHEMBL5113396, “Development of 4-((3-oxo-3-phenylpropyl)amino)benzenesulfonamide derivatives utilizing tail/dual-tail approaches as novel carbonic anhydrase inhibitors” (Eur J Med Chem, 2022).
pIC50, pKi: −log10 of the molar value.

Columns and labels:
Carbonic anhydrase 9 = Carbonic anhydrase 9 (Homo sapiens, UniProt Q16790)
Description: Inhibition of human carbonic anhydrase 9 assessed as inhibition constant incubated for 15 mins prior to testing by phenol red based stopped-flow CO2 hydration assay

T47D [1] = assay: Antiproliferative activity against human T47D cells assessed as cell growth inhibition incubated for 4 hrs under hypoxia condition by MTT colorimetric assay; format: functional, cell-based
MCF7 [2] = assay: Antiproliferative activity against human MCF7 cells assessed as cell growth inhibition incubated for 4 hrs under hypoxia condition by MTT colorimetric assay; format: functional, cell-based; conditions: MCF7, 4 h
MCF7 [3] = assay: Antiproliferative activity against human MCF7 cells assessed as cell growth inhibition incubated for 4 hrs under normoxia condition by MTT colorimetric assay; format: functional, cell-based; conditions: MCF7, 4 h
T47D [4] = assay: Antiproliferative activity against human T47D cells assessed as cell growth inhibition incubated for 4 hrs under normoxia condition by MTT colorimetric assay; format: functional, cell-based

| pKi (Carbonic anhydrase 9) | Structure (SMILES) | also measured |
| --- | --- | --- |
| 8.03 | NS(=O)(=O)c1ccc(NCCC(=O)c2ccc3ccccc3c2)cc1 | pIC50 (T47D [1]): 4.72; pIC50 (MCF7 [2]): 5.12; pIC50 (MCF7 [3]): 4.26; pIC50 (T47D [4]): < 4.00 |
| 7.18 | NS(=O)(=O)c1ccc(NNCCC(=O)c2ccc3ccccc3c2)cc1 |  |
| 6.02 | NS(=O)(=O)c1ccccc1NCCC(=O)c1ccc2ccccc2c1 |  |
| 7.99 | NS(=O)(=O)c1ccc(NCC/C(=N/CCO)c2ccccc2)cc1 | pIC50 (T47D [1]): 4.96; pIC50 (MCF7 [2]): 5.24; pIC50 (MCF7 [3]): 4.53; pIC50 (T47D [4]): 4.37 |

Further lines, the molecule ahead of its results:

| Structure (SMILES) | pKi (Carbonic anhydrase 9) | also measured |
| --- | --- | --- |
| NS(=O)(=O)c1ccccc1NCCC(=O)c1ccccc1 | 6.51 |  |
| NS(=O)(=O)c1ccc(NCCC(=O)c2ccccc2)cc1 | 7.29 |  |
| NS(=O)(=O)c1cccc(NCCC(=O)c2ccc3ccccc3c2)c1 | 7.41 |  |
| NS(=O)(=O)c1ccc(C(=O)NNCCC(=O)c2ccccc2)cc1 | 7.34 |  |
| NS(=O)(=O)c1ccc(NNCCC(=O)c2ccccc2)cc1 | 7.08 |  |
| NS(=O)(=O)c1ccc(CCNCCC(=O)c2ccccc2)cc1 | 7.06 |  |
| NS(=O)(=O)c1ccc(NCC/C(=N\O)c2ccccc2)cc1 | 7.27 |  |
| NS(=O)(=O)c1cccc(NCCC(=O)c2ccccc2)c1 | 7.12 |  |
| NS(=O)(=O)c1ccc(C(=O)NNCCC(=O)c2ccc3ccccc3c2)cc1 | 7.44 |  |
| COc1cccc2c1C(=O)c1c(O)c3c(c(O)c1C2=O)C[C@@](O)(C(=O)CO)C[C@@H]3O[C@H]1C[C@H](N)[C@H](O)[C@H](C)O1 [DOXORUBICIN] |  | pIC50 (T47D [1]): 5.42; pIC50 (T47D [4]): 5.49 |
